Measured values taken from patent US5470877A, “Uses of perillic acid methyl ester” (Wisconsin Alumni Research Foundation, priority 1994, dated 1995).

Assays:
HT29 cells [1] = assay: Inhibition of HT29 colon adenocarcinoma cell growth/proliferation; format: cell-based, human
Method: (§1) We examined the effect of several of the terpenes on certain types of cell growth. […] Additionally, growth of HT29 (human colon adenocarcinoma) cells was inhibited by 80% by 1 mM perillyl alcohol.

21-26 kDa proteins [2] = assay: Protein isoprenylation inhibition in M600B human mammary epithelial cells; settings: 3 mM
Method: To test whether a specific monoterpene affects isoprenylation of proteins in cells, cell extracts were incubated with a radioactive isoprene precursor and 0-5 mM of the test monoterpene and then subjected to SDS-PAGE. Because they carried a radioactive label, isoprenylated proteins were visualized by fluorography. As a control, cells were incubated without the monoterpene.
For both isoprenylation and cell growth assays, the monoterpenes were mixed with prewarmed (37° C.) medium containing 10% calf serum, and then the monoterpene-containing medium was added to cells. The relative effects of various monoterpenes on protein isoprenylation were compared by comparison of the relative intensity of bands on fluorograms from [^14 C]-mevalonate-labelled cells treated with each monoterpene.
Samples from each cell line were then analyzed on the same gel.

HT29 cells [3] = assay: Protein isoprenylation in HT29 cells; format: cell-based, human
M600B cells = assay: M600B cell growth inhibition (FIG. 4); format: cell-based; settings: M600B (human) cells
Method: NIH3T3 (mouse embryo) cells were obtained from the American Type Culture Collection and were grown in Dulbecco's modified Eagle's medium supplemented with 10% calf serum. M600B immortalized human mammary epithelial cells (Stampfer, M.R., 1985, J. Tissue Culture Methods 9:107-115) were, obtained from Dr. Martha Stampfer and were grown in supplemented HCDB 170 medium (Hammond, et al. (1984) Proc. Natl. Acad. Sci U.S.A. 81:5435-5439), as described previously (Stampfer, et al. (1985) Proc. Natl. Acad. Sci U.S.A. 82:2394-2398; Eldridge, et al. (1989) Cancer Res. 49:4326-4331).
All cells were maintained in 100-mm dishes at 37° C. in a humidified 5% CO2 atmosphere. Viable cells were distinguished from nonviable cells by counting azure II/methylene blue-stained colonies 10 days after the cells were plated at a density of 100 cells per dish. Trypan blue exclusion was measured by incubating cells for 1 min with one drop of trypan blue per 10 ml of cells. Viable (colorless) and nonviable (blue) cells were then counted on a hemocytometer.
as §1

[4] = Acute oral toxicity in rats; format: in vivo, Wistar-Furth rat; settings: 1:1 sesame oil
Method: When POH was given in an acute manner (a single oral dose, 1:1 mix with sesame oil, for 5 days), the following was observed: After 300 mg total POH dose, 2 out of 5 rats died within 24 hours. After a 200 mg total POH dose, 2 out of 5 rats died within 24 hours. After a 100 mg total POH dose, 5 out of 5 rats tolerated 5 days with weight loss.

21-26 kDa proteins [5] = assay: Protein isoprenylation inhibition in NIH3T3 cells (SDS-PAGE fluorography); format: cell-based, mouse
Method: "Isoprenylation" is the addition of a multiple of the 5 carbon isoprene unit to a protein. Our experiments in isoprenylation are reported at Crowell, et al. 1991, J. Biol. Chem. 266:17679-17685. To test whether a specific monoterpene affects isoprenylation of proteins in cells, […] were incubated with a radioactive isoprene precursor and 0-5 mM of the test monoterpene and then subjected to SDS-PAGE. Because they carried a radioactive label, isoprenylated proteins were visualized by fluorography. As a control, cells were incubated without the monoterpene.
Cells were harvested after trypsin treatment, washed twice with phosphate-buffered saline, suspended in electrophoresis sample buffer (Laemmli, U.K., 1970, Nature 227:680-685), and either analyzed immediately or stored at -20° C. Whole cell extracts were analyzed by SDS-PAGE on 16-cm×18-cm×0.75-mm gels by the method of Laemmli (supra). The acrylamide concentrations were 5% for the stacking gel and 12% for the separating gel. Gels were stained with Coomassie Brilliant Blue, equilibrated for 20 min in Amplify (Amersham Corp.) fluorographic reagent, dried under vacuum at 65° C., and exposed to preflashed Kodak X-Omat AR film as described by Laskey and Mills (1975, Eur. J. Biochem, 56:335-341). Some fluorograms were analyzed further by densitometry. Where indicated, gels were sliced, dissolved at 50° C. for 3 hours in 0.5 ml of water+0.5 ml of Solvable (Amersham), and then analyzed by scintillation spectrometry in 10 ml of Atom light (Amersham) mixture. Protein content was measured by the method of Lowry, et al. (1951, J. Biol. Chem. 193:265-275).
FIG. 1 depicts the structures of certain monoterpenes.
The degree of isoprenylation was evaluated by the amount of labeled protein present in the 21-26 kDa range, as evidenced by fluorography.

rat mammary carcinoma = assay: Comparison of dietary perillyl alcohol and perillic acid methyl ester as inducers of rat mammary carcinoma regression; format: in vivo, Wistar-Furth rat; settings: for no regression (tumors) / no response / partial regression >1/2 original diameter (%) / partial regression >1/2 original diameter (tumors) / small regression response / some growth of tumor: 6 weeks
Method: Inbred female Wistar-Furth rats were given 50 mg/kg DMBA at 50-55 days of age. Upon development of a mammary tumor with the largest diameter≥10 mm, the rat was assigned to 0.5% perillic acid methyl ester diet and fed ad libitum. The 0.5% perillic acid methyl ester diet (weight compound/weight ground Teklad rat/mouse 4% meal/chow) was prepared fresh every 7-10 days. Fresh diet was given to rats daily. All rats were weighed and palpated weekly. The study was terminated at 6 weeks after initial diet administration. The following tumor regression data was acquired:
We compared the effects of PAME and POH in terms of their ability to regress rat mammary carcinomas. Table 8 records our comparison. In summary, a 0.5% PAME diet was effective, while a 0.5% POH diet was only 10% effective. Diets of 2% POH were roughly 64-70% effective. While 2% POH is tolerated by a mammal, on a practical level PAME is preferred because a lower dose is sufficient.

human cancer cell lines = assay: Growth of human cancer cell lines (NCI Developmental Therapeutics Program, FIG. 5); format: cell-based; settings: various concentrations
Method: Various concentrations of perillyl alcohol caused the regression of a number of human cancer cell lines. FIG. 5 is a set of diagrams showing the effects of perillyl alcohol on different cancer cell lines. These experiments were conducted by the National Cancer Institute Developmental Therapeutics Program.

[6] = 0.5% POH diet, first comparison
[7] = 1.0% POH diet, first comparison
[8] = 1.5% POH diet, first comparison
[9] = 2.0% POH diet, first comparison
[10] = 2.0% POH diet, second comparison

C=C(C)[C@@H]1CC=C(CO)CC1 [perillyl alcohol]
Rank order, inhibition of HT-29 tumor cell proliferation (HT29 cells [1]; 1 = greatest inhibition, 5 = least inhibition): 1
IC50 (HT29 cells [1]; Homo sapiens, HT-29, read-out: IC50 HT29 tumor cell proliferation): 50 µM
inhibition at 1000 µM (HT29 cells [1]; Homo sapiens, HT-29, read-out: growth inhibition of HT29 cells): 80%
HT29 cell growth (HT29 cells [1]; colon adenocarcinoma cells): regression of cell growth
isoprenylation of 21-26 kDa proteins (21-26 kDa proteins [2]): inhibited significantly
differential isoprenylation in HT29 (HT29 cells [3]): differential isoprenylation
inhibition of cell growth (M600B cells): significantly inhibited cell growth in a dose-dependent manner
rats that tolerated 5 days with weight loss ([4]; 100 mg total POH dose): 5 out of 5
rats died within 24 hours ([4]; 200 mg total POH dose): 2 out of 5
rats died within 24 hours ([4]; 300 mg total POH dose): 2 out of 5
ability to inhibit isoprenylation within test panel (21-26 kDa proteins [5]; 1 mM, 21-26 kDa range): greatest ability to inhibit isoprenylation
inhibition of isoprenylation in all cases examined (21-26 kDa proteins [5]; all cell types examined): inhibition of isoprenylation
no regression (tumors) (rat mammary carcinoma; [6]): 18/20
no response (rat mammary carcinoma; [6]): 1/20
partial regression >1/2 original diameter (%) (rat mammary carcinoma; [6]): 10%
partial regression >1/2 original diameter (tumors) (rat mammary carcinoma; [6]): 2/20
small regression response (rat mammary carcinoma; [6]): 2/20
some growth of tumor (rat mammary carcinoma; [6]): 15/20
no regression (tumors) (rat mammary carcinoma; [7]): 15/20
no response (rat mammary carcinoma; [7]): 2/20
partial regression >1/2 original diameter (%) (rat mammary carcinoma; [7]): 25%
partial regression >1/2 original diameter (tumors) (rat mammary carcinoma; [7]): 5/20
small regression response (rat mammary carcinoma; [7]): 2/20
some growth of tumor (rat mammary carcinoma; [7]): 11/20
no regression (tumors) (rat mammary carcinoma; [8]): 15/21
no response (rat mammary carcinoma; [8]): 7/21
partial regression >1/2 original diameter (%) (rat mammary carcinoma; [8]): 29%
partial regression >1/2 original diameter (tumors) (rat mammary carcinoma; [8]): 6/21
small regression response (rat mammary carcinoma; [8]): 7/21
some growth of tumor (rat mammary carcinoma; [8]): 4/21
no regression (tumors) (rat mammary carcinoma; [9]): 6/20
no response (rat mammary carcinoma; [9]): 1/20
partial regression >1/2 original diameter (%) (rat mammary carcinoma; [9]): 70%
partial regression >1/2 original diameter (tumors) (rat mammary carcinoma; [9]): 14/20
small regression response (rat mammary carcinoma; [9]): 2/20
some growth of tumor (rat mammary carcinoma; [9]): 3/20
no regression (tumors) (rat mammary carcinoma; [10]): 4/11
no response (rat mammary carcinoma; [10]): 2/11
partial regression >1/2 original diameter (%) (rat mammary carcinoma; [10]): 64%
partial regression >1/2 original diameter (tumors) (rat mammary carcinoma; [10]): 7/11
small regression response (rat mammary carcinoma; [10]): 1/11
some growth of tumor (rat mammary carcinoma; [10]): 1/11
effectiveness of diet (%) (rat mammary carcinoma; 2% POH diets): 64-70%
weight loss (rat mammary carcinoma; rats fed PAME or POH diet): did experience weight loss
regression rate (rat mammary carcinoma; rats fed a 1% diet): 55%
effect on human cancer cell growth (human cancer cell lines): inhibited cancer cell growth
